Values quoted from earlier work as cited in patent US7288270B1, “Therapeutic composition for the prevention and treatment of mucositis and mucosal disorders” (priority 2002, dated 2007).

What was measured:
[1] = test system: Gram negative bacteria that tend to colonize the oral cavity; settings: patients undergoing radiation therapy
[2] = test system: mucositis; settings: human, in vivo
[3] = test system: eczema; settings: ointment, topical
[4] = test system: Herpes virus; settings: in test tubes
[5] = test system: mucositis; settings: subsequent randomized and controlled studies
[6] = test system: Staphylococcus aureus; settings: in the solvent dimethyl sulfoxide; one range given for three species
[7] = test system: HSV-2; settings: dose-dependent, reversible manner
[8] = test system: dermatophytes (Trichophyton mentagrophytes, Trichophyton tonsurans, Trichophyton rubrum, Epidermophyton floccosum, Microsporum gypseum)
[9] = test system: Enterococcus faecalis; settings: in the solvent dimethyl sulfoxide; one range given for three species
[10] = test system: HSV-1; settings: dose-dependent, reversible manner
[11] = test system: Pseudomonas aeruginosa; settings: in the solvent dimethyl sulfoxide; one range given for three species

Structure (SMILES): [H]/N=C(\N/C(=N/[H])NCCCCCCNC(=N)NC(=N)Nc1ccc(Cl)cc1)Nc1ccc(Cl)cc1 [chlorhexidine, Chlorhexidine]
- effectiveness against Gram negative bacteria of the oral cavity [1]: relatively ineffective
- incidence of mucositis [2]: higher incidence of mucositis

Structure (SMILES): CC1(C)[C@@H](O)CC[C@]2(C)[C@H]3C(=O)C=C4[C@@H]5C[C@@](C)(C(=O)O)CC[C@]5(C)CC[C@@]4(C)[C@]3(C)CC[C@@H]12 [glycyrrhetinic acid]
- improvement of eczema compared with hydrocortisone [3]: as effective as hydrocortisone

Structure (SMILES): CC1(C)[C@@H](O[C@H]2O[C@H](C(=O)O)[C@@H](O)[C@H](O)[C@H]2O[C@@H]2O[C@H](C(=O)O)[C@@H](O)[C@H](O)[C@H]2O)CC[C@]2(C)[C@H]3C(=O)C=C4[C@@H]5C[C@@](C)(C(=O)O)CC[C@]5(C)CC[C@@]4(C)[C@]3(C)CC[C@@H]12 [glycyrrhizic acid]
- inhibition of herpes virus [4]: inhibited

Structure (SMILES): CC(=O)CCCCn1c(=O)c2c(ncn2C)n(C)c1=O [pentoxifylline]
- benefit in mucositis [5]: failed to demonstrate any benefit

Structure (SMILES): Oc1ccc(/C=C/c2cc(O)cc(O)c2)cc1 [resveratrol, 3,5,4′-trihdyroxystilbene]
- concentration at which growth was inhibited [6]: 171 to 342 µg/mL
- inhibition of HSV-2 replication [7]: inhibit
- concentration at which growth of dermatophytes was inhibited [8]: 25 to 50 µg/mL
- concentration at which growth was inhibited [9]: 171 to 342 µg/mL
- inhibition of HSV-1 replication [10]: inhibit
- concentration at which growth was inhibited [11]: 171 to 342 µg/mL
